Measurements as given in patent US9926304B2, “1-(arylmethyl)quinazoline-2,4(1H,3H)-diones as PARP inhibitors and the use thereof” (Impact Therapeutics, Inc., priority 2011, dated 2018).

Experiments:
[1] = tested on: SW620 human colorectal cancer cells; assay: MTT based cell viability assay: potentiation of the growth inhibiting activity of MMS; conditions: Homo sapiens, SW-620, 120 h, read-out: IC50 (nM), potentiation of the growth inhibiting activity of MMS, SW620 cells, 1.7 μg/ml MMS, 5 days (120 hours), MTT
[2] = tested on: Human breast cancer cell line T47D; assay: Cell based caspase-3 activity assay: potentiation of MMS induced apoptosis; conditions: Homo sapiens, T47D, 24 h, T47D cells, 11.1 μg/ml MMS, 24 hours, intracellular caspase-3 activity; read-out: EC50 (nM), potentiation of the apoptosis inducing activity of MMS
Summary of the method: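 T47D cells were exposed for 24 h to compound plus a minimally apoptotic MMS dose (medium containing 11.1 μg/ml MMS). Lysates were incubated 3 h at 37 °C with (Ac-DEVD)2-R110 caspase-3 substrate (20 μM in added buffer) and read at ex 496/em 520 nm. EC50 came from a sigmoidal fit of RFU versus log concentration.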

[3] = tested on: BRCA-2 deficient CAPAN-1 human pancreatic cancer cells; assay: MTT based cell viability assay: growth inhibition of BRCA-2 deficient CAPAN-1 cells; conditions: 240 h, compound alone, 10 day assay
From the text: Determination of the cell growth inhibiting activity of 1-(3-(4-(pyrimidin-2-yl)piperazine-1-carbonyl)benzyl)quinazoline-2,4(1H,3H)-dione and analogs on BRCA-2 deficient CAPAN-1 pancreatic duck cancer cells using a MTT based cell viability assay
BRCA-deficient cancer cells are sensitive to PARP inhibition. In the presence of PARP inhibitors, BRCA-deficient cancer cells could not grow and eventually will lead to death of cells. BRCA-2 deficient CAPAN-1 human pancreatic cancer cells were used to test the growth inhibiting activity of substituted 1-(arylmethyl)quinazoline-2,4(1H,3H)-diones. Briefly, CAPAN-1 cells are grown and maintained in IMEM medium supplemented with 20% FBS. The assay takes 10 days to finish. On day 1, 6000 CAPAN-1 cells are seeded to each well of a 96-well plate. The cells are incubated at 37° C. in a cell culture incubator overnight. In the next day, serial dilutions of compounds to be tested and reference compound (AZD2281) were prepared with a 1:3 and 1:10 fashion in DMSO. Ten-fold compound solutions were made by mixing 10 μl DMSO serial dilution solutions with 90 μl fresh growth medium. The cell culture medium was removed and 180 μl fresh media with FBS and 20 μl of compound solutions were added to each well. The final concentration of DMSO was 1%. Cells were then returned to the CO2 cell culture incubator and incubated at 37° C. for two days (day 3 and day 4). On day 5, the same procedure as what was done on day 2 was repeated. Cell culture medium was removed and fresh medium containing serial dilutions of compounds or reference compounds were added. Cells were returned to the CO2 cell culture incubator and incubated for two more days. On day 8, same procedure was repeated again and fresh medium containing the testing compounds or reference compounds were added and incubated for an additional 2 days. On day 10, 20 μl of MTT reagent (5 mg/ml) was added to each well of the cell culture plate and incubated for 4 h. The cell culture media was removed and 100 μl DMSO was added to each well. The 96-well cell culture plates were shaked horizontally for 10 min and readed in a Varioskan Flash plate reader (Thermo Fisher Scientific) at 520 and 690 nm. The obtained 520 nm absorbance readings subtracting corresponding 690 nm reading were analyzed using a commercial graphic software (GraphPad Prism 5) and plotted against the Log scale of the compound concentrations.

Structure (SMILES) | IC50 [1] | EC50 [2] | IC50 [3]
O=C(c1ccc(F)c(Cn2c(=O)[nH]c(=O)c3ccccc32)c1)N1CCN(c2ccccn2)CC1 [Example 51, 1-(6-Fluoro-3-(4-(pyridin-2-yl)piperazine-1-carbonyl)benzyl)quinazoline-2,4(1H,3H)-dione] | 33 nM | 20 nM | 402 nM
O=C(c1cc(Cn2c(=O)[nH]c(=O)c3ccccc32)ccc1F)N1CCN(c2cnccn2)CC1 [Example 42, 1-(4-Fluoro-3-(4-(pyrazin-2-yl)piperazine-1-carbonyl)benzyl)quinazoline-2,4(1H,3H)-dione] | 78 nM | 11 nM | 2540 nM
O=C(c1ccc(F)c(Cn2c(=O)[nH]c(=O)c3cc(F)ccc32)c1)N1CCN(c2ccccn2)CC1 [Example 150, 6-Fluoro-1-(6-fluoro-3-(4-(pyridin-2-yl)piperazine-1-carbonyl)benzyl)quinazoline-2,4(1H,3H)-dione] | 25 nM | 16 nM | 176 nM
O=C(c1cccc(Cn2c(=O)[nH]c(=O)c3cc(F)ccc32)c1)N1CCN(c2ccccn2)CC1 [Example 140, 6-Fluoro-1-(3-(4-(pyridin-2-yl)piperazine-1-carbonyl)benzyl)quinazoline-2,4(1H,3H)-dione] | 37 nM | 8.9 nM | 155 nM
O=C(c1cccc(Cn2c(=O)[nH]c(=O)c3ccccc32)c1)N1CCN(c2nsc3ccccc23)CC1 [Example 27, 1-(3-(4-(Benzo[d]isothiazol-3-yl)piperazine-1-carbonyl)benzyl)quinazoline-2,4(1H,3H)-dione] | 83 nM | 51 nM | 281 nM

Compounds with a lower IC50 [1], results first:

IC50 [1] | EC50 [2] | IC50 [3] | Structure (SMILES)
15 nM | 11 nM | 111 nM | O=C(c1ccc(F)c(Cn2c(=O)[nH]c(=O)c3cc(Cl)ccc32)c1)N1CCN(c2ncccn2)CC1 [Example 123, 6-Chloro-1-(6-fluoro-3-(4-(pyrimidin-2-yl)piperazine-1-carbonyl)benzyl)quinazoline-2,4(1H,3H)-dione]
14 nM | 5.8 nM | 52 nM | O=C(c1ccc(F)c(Cn2c(=O)[nH]c(=O)c3cc(F)ccc32)c1)N1CCN(c2ncccn2)CC1 [Example 149, 6-Fluoro-1-(6-fluoro-3-(4-(pyrimidin-2-yl)piperazine-1-carbonyl)benzyl)quinazoline-2,4(1H,3H)-dione]
19 nM | 45 nM | > 10000 nM | O=C(c1cc(Cn2c(=O)[nH]c(=O)c3c(F)cccc32)ccc1F)N1CCN(C2CCCCC2)CC1 [Example 212, 1-(3-(4-Cyclohexylpiperazine-1-carbonyl)-4-fluorobenzyl)-5-fluoroquinazoline-2,4(1H,3H)-dione]
0.82 nM | 3.1 nM | 54 nM | O=C(c1cc(Cn2c(=O)[nH]c(=O)c3cc(Cl)ccc32)ccc1F)N1CCN(C(=O)C2CCCC2)CC1 [Example 118, 6-Chloro-1-(3-(4-(cyclopentylcarbonyl)piperazine-1-carbonyl)-4-fluorobenzyl)quinazoline-2,4(1H,3H)-dione]
15 nM | 3.8 nM | 1460 nM | O=C(c1cc(Cn2c(=O)[nH]c(=O)c3c(Cl)cccc32)ccc1F)N1CCN(C(=O)C2CCC2)CC1 [Example 168, 5-Chloro-1-(3-(4-(cyclobutylcarbonyl)piperazine-1-carbonyl)-4-fluorobenzyl)quinazoline-2,4(1H,3H)-dione]
0.72 nM | 3 nM | 56 nM | O=C(c1cc(Cn2c(=O)[nH]c(=O)c3cc(Cl)ccc32)ccc1F)N1CCN(C(=O)C2CCCCC2)CC1 [Example 119, 6-Chloro-1-(3-(4-(cyclohexylcarbonyl)piperazine-1-carbonyl)-4-fluorobenzyl)quinazoline-2,4(1H,3H)-dione]
2.5 nM | 19 nM | 460 nM | O=C(c1cc(Cn2c(=O)[nH]c(=O)c3c(F)cccc32)ccc1F)N1CCN(CC2CCCCC2)CC1 [Example 217, 1-(3-(4-(Cyclohexylmethyl)piperazine-1-carbonyl)-4-fluorobenzyl)-5-fluoroquinazoline-2,4(1H,3H)-dione]
